Common to all, as to format: cell-based
One assay relates to Gaeumannomyces graminis. The assay is described as follows: Test Example 2: in vitro antimicrobial activity test, colony diameter on PDA plate with chemicals, 20° C., three days.
A further assay has as its system Septoria tritici. As to the kind of experiment: Test Example 4: in vitro antimicrobial activity test, colony diameter on PDA plate with chemicals, 25° C., 14 days. On the procedure:
(§1) On the other hand, Glomerella cingulata was punched out from the vicinity of a Glomerella cingulata colony that was cultured in advance on another plate culture medium free of the chemicals using a cork borer having a diameter of 4 mm, and inoculated on the PDA plate culture medium in which the chemicals were mixed. After culturing at 25° C. for seven days, the diameter of the grown colony was measured. […] Additionally, in the above formula, R represents a fungal growth inhibition rate (%), dc represents the diameter of a colony on an untreated plate, and dt represents the diameter of a colony on a chemical-treated plate.
(§2) Inhibition rate when used as a mixture (theoretical value)=α+(100−α)×β)/100 Note that, in the formula above, α and β respectively represent the inhibition rates of the compounds during single use of the compounds.
In this test example, the antimicrobial action of a mixed formulation of compound (1) and trifloxystrobin against Septoria tritici was tested.
Septoria tritici was punched out from the vicinity of a Septoria tritici colony that was cultured in advance on another plate culture medium free of the chemicals using a cork borer having a diameter of 4 mm, and inoculated on the PDA plate culture medium in which the chemicals were mixed.

Another assay concerns Glomerella cingulata. As to the kind of experiment: Test Example 1: in vitro antimicrobial activity test, colony diameter on PDA plate with chemicals, 25° C., seven days. On the procedure:
as §1

In the next assay the test system is Rhynchosporium secalis. As to the kind of experiment: Test Example 5: in vitro antimicrobial activity test, colony diameter on PDA plate with chemicals, 25° C., 14 days.
Assay [1] relates to Pseudocercosporella herpotrichoides. The assay is described as follows: Test Example 3: in vitro antimicrobial activity test, colony diameter on PDA plate with chemicals, 20° C., seven days. On the procedure: as §1, §2
Pseudocercosporella herpotrichoides was punched out from the vicinity of a Pseudocercosporella herpotrichoides colony using a cork borer having a diameter of 4 mm, and inoculated on the PDA plate culture medium in which the chemicals were mixed. After culturing at 20° C. for seven days, the diameter of the grown colony was measured.

For assay [2], the system named is Pyrenophora graminea. The assay is described as follows: Test Example 6: in vitro antimicrobial activity test (picoxystrobin), colony diameter on PDA plate with chemicals, 25° C., 3 days. The settings on record: Compound (1) 0 ppm. On the procedure: as §1, §2
(§3) Pyrenophora graminea was punched out from the vicinity of a Pyrenophora graminea colony that was cultured in advance on another plate culture medium free of the chemicals using a cork borer having a diameter of 4 mm, and inoculated on the PDA plate culture medium in which the chemicals were mixed. After culturing at 25° C. for 3 days, the diameter of the grown colony was measured.

Assay [3] relates to Pyrenophora graminea. The assay is described as follows: Test Example 7: in vitro antimicrobial activity test (dimoxystrobin), same manner as Test Example 6. To be noted: Compound (1) 0 ppm. On the procedure:
as §1, §2, §3

Setting [4] is: Zymoseptoria tritici, read-out: Fungal growth inhibition rate (%) Measured value.
Where [5] appears, read: Colletotrichum gloeosporioides, read-out: Fungal growth inhibition rate (%) Measured value.
The mark [6] stands for this setting: Oculimacula yallundae, read-out: Fungal growth inhibition rate (%) Measured value.

The source of these data is patent publication US9750254B2, “Agricultural or horticultural chemical, method of controlling plant diseases, and product for controlling plant diseases” (Kureha Corporation, priority 2013, dated 2017).

Protocol for Gaeumannomyces graminis: On the other hand, Glomerella cingulata was punched out from the vicinity of a Glomerella cingulata colony that was cultured in advance on another plate culture medium free of the chemicals using a cork borer having a diameter of 4 mm, and inoculated on the PDA plate culture medium in which the chemicals were mixed. After culturing at 25° C. for seven days, the diameter of the grown colony was measured. […] Additionally, in the above formula, R represents a fungal growth inhibition rate (%), dc represents the diameter of a colony on an untreated plate, and dt represents the diameter of a colony on a chemical-treated plate. […] Meanwhile, Gaeumannomyces graminis was punched out from the periphery of a colony of Gaeumannomyces graminis using a cork borer having a diameter of 4 mm, and inoculated onto the PDA agar plates in which the chemical(s) was (were) mixed.
Protocol for Rhynchosporium secalis: Additionally, in the above formula, R represents a fungal growth inhibition rate (%), dc represents the diameter of a colony on an untreated plate, and dt represents the diameter of a colony on a chemical-treated plate. […] Rhynchosporium secalis was punched out from the vicinity of a Rhynchosporium secalis colony that was cultured in advance on another plate culture medium free of the chemicals using a cork borer having a diameter of 4 mm, and inoculated on the PDA plate culture medium in which the chemicals were mixed. After culturing at 25° C. for 14 days, the diameter of the grown colony was measured.

Consider `CO/C=C(/C(=O)OC)c1ccccc1Oc1cc(Oc2ccccc2C#N)ncn1` [Azoxystrobin, azoxystrobin], for which the “Fungal growth inhibition rate (%) Measured value” is given as 35% in the assay with Gaeumannomyces graminis (Compound (1) 0 ppm, Azoxystrobin 0.010 ppm) and 98% in the assay on Gaeumannomyces graminis (Compound (1) 0 ppm, Azoxystrobin 2.5 ppm).
By inhibition is commonly meant the relative decrease from the control value, in per cent. With `CON=C(C(=O)OC)c1ccccc1CON=C(C)c1cccc(C(F)(F)F)c1` [Trifloxystrobin, trifloxystrobin], in the assay on Septoria tritici (setting [4]), the inhibition at 0.02 ppm came out at 82%, the inhibition at 0.08 ppm amounted to 84% and the inhibition at 0.31 ppm was 86%.
As to `COC(=O)N(OC)c1ccccc1COc1ccn(-c2ccc(Cl)cc2)n1` [Pyraclostrobin, pyraclostrobin], in the assay with Glomerella cingulata (setting [5]), the inhibition at 0.1575 ppm was 73%, the inhibition at 0.63 ppm stood at 89% and the inhibition at 10 ppm stood at 100%.
Regarding `CO/N=C(/C1=NOCCO1)c1ccccc1Oc1ncnc(Oc2ccccc2Cl)c1F` [Fluoxastrobin, fluoxastrobin], in the assay on Rhynchosporium secalis (Rhynchosporium secalis, read-out: Fungal growth inhibition rate (%) Measured value), the inhibition at 0.005 ppm was 25%.
Turning to `CO/N=C(/C(=O)OC)c1ccccc1COc1ccccc1C` [Kresoxim-methyl, kresoxim-methyl], in assay [1] (setting [6]), the inhibition at 0.02 ppm worked out at 21%, the inhibition at 0.08 ppm amounted to 34%, the inhibition at 0.31 ppm worked out at 60% and the inhibition at 1.25 ppm amounted to 90%.
With `COC(=O)C1(C)CCC(Cc2ccc(Cl)cc2)C1(O)Cn1cncn1` (centres unmarked) [Compound (1)], the “Fungal growth inhibition rate (%) Measured value” is listed as 45% in the assay with Glomerella cingulata (Compound (1) 0.313 ppm, Pyraclostrobin 0 ppm); 0% with Gaeumannomyces graminis (Compound (1) 0.078 ppm, Azoxystrobin 0 ppm); 7% in assay [1] (Compound (1) 0.078 ppm, Kresoxim-methyl 0 ppm); 9% in the assay on Septoria tritici (Compound (1) 0.02 ppm, Trifloxystrobin 0 ppm); 87% in the assay with Rhynchosporium secalis (Compound (1) 1.25 ppm, Fluoxastrobin 0 ppm).
With `CO/C=C(/C(=O)OC)c1ccccc1COc1cccc(C(F)(F)F)n1` [Picoxystrobin, picoxystrobin], the “Fungal growth inhibition rate (%) Measured value” came to 36% in the assay on Pyrenophora graminea [2] (Picoxystrobin 0.005 ppm); 57% in the assay on Pyrenophora graminea [2] (Picoxystrobin 0.02 ppm); 71% with Pyrenophora graminea [2] (Picoxystrobin 0.08 ppm); 87% in the assay with Pyrenophora graminea [2] (Picoxystrobin 0.31 ppm); 94% in the assay on Pyrenophora graminea [2] (Picoxystrobin 1.25 ppm).
`CNC(=O)/C(=N/OC)c1ccccc1COc1cc(C)ccc1C` [Dimoxystrobin, dimoxystrobin]: the “Fungal growth inhibition rate (%) Measured value” in the assay on Pyrenophora graminea [3] (Dimoxystrobin 0.005 ppm) turned out to be 28%; in the assay on Pyrenophora graminea [3] (Dimoxystrobin 0.02 ppm) it was 55%; in the assay with Pyrenophora graminea [3] (Dimoxystrobin 0.08 ppm), 71%.
